Activity calls are given as the source filed them. The rule behind the calls is not given here. Starred links: 1 amine or outer side, 2 acyl side, 3 side chain; linkers in the order of their positions; H or OH if unused. Residues, ends and D or L forms follow the SMILES beside them. *: point of attachment. X1 = CC(=O)O[C@H]1C(=O)[C@@]2(C)[C@H]([C@H](OC(=O)c3ccccc3)[C@]3(O)C[C@H](OC(=O)[C@H](OC(=O)CCCCCN4C(=O)CC(*)C4=O)[C@@H](NC(=O)c4ccccc4)c4ccccc4)C(C)=C1C3(C)C)[C@]1(OC(C)=O)CO[C@@H]1C[C@@H]2O; Pteroyl = Nc1nc2ncc(CNc3ccc(C(=O)*)cc3)nc2c(=O)[nH]1; γGlu = O=C(O)[C@H](CCC(=O)[*:2])N[*:1]
Tests used:
MCF7/PTX [1] = test: Induction of membrane disruption in human MCF7/PTX cells incubated for 12 hrs by LDH release assay; type: functional, cell-based
MCF7/PTX [2] = test: Induction of apoptosis in human MCF7/PTX cells assessed as early apoptotic cells at 4 uM incubated for 12 hrs by Annexin V-FITC/propidium iodide staining based flow cytometric analysis (reference value: 1.1%); type: functional
MCF7/PTX [3] = test: Induction of apoptosis in human MCF7/PTX cells assessed as live cells at 4 uM incubated for 12 hrs by Annexin V-FITC/propidium iodide staining based flow cytometric analysis (reference value: 95.9%); type: functional
MCF7/PTX [4] = test: Induction of apoptosis in human MCF7/PTX cells assessed as necrotic cells at 2 uM incubated for 12 hrs by Annexin V-FITC/propidium iodide staining based flow cytometric analysis (reference value: 2.1%); type: functional
MCF7/PTX [5] = test: Induction of apoptosis in human MCF7/PTX cells assessed as late apoptotic cells at 2 uM incubated for 12 hrs by Annexin V-FITC/propidium iodide staining based flow cytometric analysis (reference value: 0.9%); type: functional
MCF7/PTX [6] = test: Induction of apoptosis in human MCF7/PTX cells assessed as early apoptotic cells at 2 uM incubated for 12 hrs by Annexin V-FITC/propidium iodide staining based flow cytometric analysis (reference value: 1.1%); type: functional
MCF7/PTX [7] = test: Induction of apoptosis in human MCF7/PTX cells assessed as live cells at 2 uM incubated for 12 hrs by Annexin V-FITC/propidium iodide staining based flow cytometric analysis (reference value: 95.9%); type: functional
MCF7/PTX [8] = test: Induction of apoptosis in human MCF7/PTX cells assessed as necrotic cells at 1 uM incubated for 12 hrs by Annexin V-FITC/propidium iodide staining based flow cytometric analysis (reference value: 2.1%); type: functional
MCF7/PTX [9] = test: Induction of apoptosis in human MCF7/PTX cells assessed as late apoptotic cells at 1 uM incubated for 12 hrs by Annexin V-FITC/propidium iodide staining based flow cytometric analysis (reference value: 0.9%); type: functional
MCF7/PTX [10] = test: Induction of apoptosis in human MCF7/PTX cells assessed as early apoptotic cells at 1 uM incubated for 12 hrs by Annexin V-FITC/propidium iodide staining based flow cytometric analysis (reference value: 1.1%); type: functional
MCF7/PTX [11] = test: Induction of apoptosis in human MCF7/PTX cells assessed as live cells at 1 uM incubated for 12 hrs by Annexin V-FITC/propidium iodide staining based flow cytometric analysis (reference value: 95.9%); type: functional
MCF7/PTX [12] = test: Induction of apoptosis in human MCF7/PTX cells assessed as late apoptotic cells at 3 uM incubated for 12 hrs by Annexin V-FITC/propidium iodide staining based flow cytometric analysis (reference value: 0.9%); type: functional
MCF7 = test: Cytotoxicity against human MCF7 cells incubated for 48 hrs by MTT assay; type: functional, cell-based; conditions: MCF7, 48 h
MCF7/PTX [13] = test: Cytotoxicity against human MCF7/PTX cells incubated for 48 hrs by MTT assay; type: functional, cell-based
K562 = test: Cytotoxicity against human K562 cells incubated for 48 hrs by MTT assay; type: functional, cell-based; conditions: K562, 48 h
A2780 = test: Cytotoxicity against human A2780 cells incubated for 48 hrs by MTT assay; type: functional, cell-based; conditions: A2780, 48 h
SK-OV-3 = test: Cytotoxicity against human SKOV3 cells incubated for 48 hrs by MTT assay; type: functional, cell-based; conditions: SK-OV-3, 48 h
MCF7/PTX [14] = test: Induction of apoptosis in human MCF7/PTX cells assessed as necrotic cells at 0.5 uM incubated for 12 hrs by Annexin V-FITC/propidium iodide staining based flow cytometric analysis (reference value: 2.1%); type: functional
HUVEC = test: Cytotoxicity against HUVEC incubated for 48 hrs by MTT assay; type: cell-based; conditions: Homo sapiens
MCF7/PTX [15] = test: Induction of apoptosis in human MCF7/PTX cells assessed as late apoptotic cells at 0.5 uM incubated for 12 hrs by Annexin V-FITC/propidium iodide staining based flow cytometric analysis (reference value: 0.9%); type: functional
MCF7/PTX [16] = test: Induction of apoptosis in human MCF7/PTX cells assessed as early apoptotic cells at 0.5 uM incubated for 12 hrs by Annexin V-FITC/propidium iodide staining based flow cytometric analysis (reference value: 1.1%); type: functional
MCF7/PTX [17] = test: Induction of apoptosis in human MCF7/PTX cells assessed as live cells at 0.5 uM incubated for 12 hrs by Annexin V-FITC/propidium iodide staining based flow cytometric analysis (reference value: 95.9%); type: functional
MCF7/PTX [18] = test: Induction of apoptosis in human MCF7/PTX cells assessed as necrotic cells at 3 uM incubated for 12 hrs by Annexin V-FITC/propidium iodide staining based flow cytometric analysis (reference value: 2.1%); type: functional
MCF7/PTX [19] = test: Induction of apoptosis in human MCF7/PTX cells assessed as live cells at 3 uM incubated for 12 hrs by Annexin V-FITC/propidium iodide staining based flow cytometric analysis (reference value: 95.9%); type: functional
MCF7/PTX [20] = test: Induction of apoptosis in human MCF7/PTX cells assessed as early apoptotic cells at 3 uM incubated for 12 hrs by Annexin V-FITC/propidium iodide staining based flow cytometric analysis (reference value: 1.1%); type: functional
Erythrocyte = test: Hemolytic activity in Wistar rat erythrocytes incubated for 1 hr; type: ADME, cell-based
MCF7/PTX [21] = test: Induction of membrane disruption in human MCF7/PTX cells at 3 uM incubated for 12 hrs by AO/EB double staining based fluorescence microscopic method; type: functional, cell-based
MCF7/PTX [22] = test: Induction of apoptosis in human MCF7/PTX cells assessed as late apoptotic cells at 4 uM incubated for 12 hrs by Annexin V-FITC/propidium iodide staining based flow cytometric analysis (reference value: 0.9%); type: functional
MCF7/PTX [23] = test: Induction of apoptosis in human MCF7/PTX cells assessed as necrotic cells at 4 uM incubated for 12 hrs by Annexin V-FITC/propidium iodide staining based flow cytometric analysis (reference value: 2.1%); type: functional
MCF7/PTX [24] = test: Induction of apoptosis in human MCF7/PTX cells assessed as live cells at 6 uM incubated for 12 hrs by Annexin V-FITC/propidium iodide staining based flow cytometric analysis (reference value: 95.9%); type: functional
MCF7/PTX [25] = test: Induction of apoptosis in human MCF7/PTX cells assessed as early apoptotic cells at 6 uM incubated for 12 hrs by Annexin V-FITC/propidium iodide staining based flow cytometric analysis (reference value: 1.1%); type: functional
MCF7/PTX [26] = test: Induction of apoptosis in human MCF7/PTX cells assessed as late apoptotic cells at 6 uM incubated for 12 hrs by Annexin V-FITC/propidium iodide staining based flow cytometric analysis (reference value: 0.9%); type: functional
MCF7/PTX [27] = test: Induction of apoptosis in human MCF7/PTX cells assessed as necrotic cells at 6 uM incubated for 12 hrs by Annexin V-FITC/propidium iodide staining based flow cytometric analysis (reference value: 2.1%); type: functional
MCF7/PTX [28] = test: Induction of mitochondrial membrane potential loss in human MCF7/PTX cells at 3 uM incubated for 12 hrs by JC1 staining-based confocal microscopic method; type: functional, cell-based
MCF7/PTX [29] = test: Induction of apoptosis in human MCF7/PTX cells assessed as increase in cleaved caspase 3 level in cytoplasm at 3 uM incubated for 2 hrs by Western blot analysis; type: functional, cell-based
MCF7/PTX [30] = test: Induction of apoptosis in human MCF7/PTX cells assessed increase in cytochrome-c expression in cytoplasm at 3 uM incubated for 2 hrs by Western blot analysis; type: functional, cell-based
Tubulin (Sus scrofa) = Tubulin (Sus scrofa) (UniProt P02554+P02550); test: Induction of porcine brain tubulin polymerization at 3 uM by fluorescence analysis
Tubulin (Sus scrofa), sequence (P02550 whole entry, looked up): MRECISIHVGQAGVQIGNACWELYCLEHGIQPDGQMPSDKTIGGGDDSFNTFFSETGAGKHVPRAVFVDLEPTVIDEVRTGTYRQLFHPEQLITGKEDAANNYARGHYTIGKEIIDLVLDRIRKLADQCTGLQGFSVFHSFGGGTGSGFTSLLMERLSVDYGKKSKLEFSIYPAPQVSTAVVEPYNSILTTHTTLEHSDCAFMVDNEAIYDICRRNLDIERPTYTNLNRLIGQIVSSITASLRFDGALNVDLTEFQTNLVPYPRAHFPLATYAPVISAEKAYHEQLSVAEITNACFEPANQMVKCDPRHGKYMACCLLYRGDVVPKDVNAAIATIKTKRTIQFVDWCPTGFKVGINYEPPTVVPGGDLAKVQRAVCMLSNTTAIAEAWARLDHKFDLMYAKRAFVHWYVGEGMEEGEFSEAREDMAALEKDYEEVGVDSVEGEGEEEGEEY
Tubulin (Sus scrofa), sequence (P02554 whole entry, looked up): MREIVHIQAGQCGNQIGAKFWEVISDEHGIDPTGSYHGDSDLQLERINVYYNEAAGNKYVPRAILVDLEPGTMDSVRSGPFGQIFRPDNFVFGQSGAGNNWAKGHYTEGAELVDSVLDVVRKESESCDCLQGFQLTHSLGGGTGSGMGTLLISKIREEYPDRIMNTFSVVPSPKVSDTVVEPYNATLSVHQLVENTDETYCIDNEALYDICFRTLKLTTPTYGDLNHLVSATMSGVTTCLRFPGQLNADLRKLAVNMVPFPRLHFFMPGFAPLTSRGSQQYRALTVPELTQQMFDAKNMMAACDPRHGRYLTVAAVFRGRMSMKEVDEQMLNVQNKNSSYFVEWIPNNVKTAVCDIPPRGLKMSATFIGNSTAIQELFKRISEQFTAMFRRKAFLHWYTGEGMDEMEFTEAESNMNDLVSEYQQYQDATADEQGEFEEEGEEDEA

[31] = Half life in Wistar rat plasma at 500 ug/ml measured over 24 hrs at 37 degC by UPLC/MS analysis; type: ADME, cell-free
[32] = Antitumor activity against […] cells xenografted in ICR mouse assessed as reduction in tumor volume at 12 umol/kg administered once every 2 days via peritumoral route for 2 weeks measured for 22 days by caliper analysis relative to control; type: functional
[33] = Toxicity in ICR mouse xenografted with […] H22 cells assessed as change in body weight at 12 umol/kg administered once every 2 days via peritumoral route for 2 weeks; conditions: in vivo, other
MCF7/PTX [34] = test: Induction of apoptosis in human MCF7/PTX cells incubated for 12 hrs by Annexin V-FITC/propidium iodide staining-based flow cytometric analysis; type: functional, cell-based
MCF7/PTX [35] = test: Induction of membrane disruption in human MCF7/PTX cells incubated for 12 hrs by AO/EB double-staining based fluorescence microscopic method; type: functional, cell-based
[36] = Solubility of the compound in water; type: physicochemical

**Q.** With `CC(=O)O[C@H]1C(=O)[C@@]2(C)[C@H]([C@H](OC(=O)c3ccccc3)[C@]3(O)C[C@H](OC(=O)[C@H](OC(=O)CCCCCN4C(=O)CC(SC[C@H](NC(=O)[C@H](CCCNC(=N)N)NC(=O)[C@H](CCCNC(=N)N)NC(=O)[C@H](CC(C)C)NC(=O)[C@H](CCCNC(=N)N)NC(=O)[C@H](CCCNC(=N)N)NC(=O)[C@H](Cc5ccccc5)NC(=O)[C@H](Cc5ccccc5)NC(=O)[C@H](CCCNC(=N)N)NC(=O)[C@H](CCCNC(=N)N)NC(=O)[C@H](Cc5ccccc5)NC(=O)[C@H](CCCNC(=N)N)NC(=O)[C@H](CCCNC(=N)N)NC(=O)[C@@H](NC(=O)[C@H](CC(C)C)NC(=O)CC[C@H](NC(=O)c5ccc(NCc6cnc7nc(N)[nH]c(=O)c7n6)cc5)C(=O)O)C(C)C)C(=O)N[C@H](C(=O)N[C@@H](CC(C)C)C(=O)N[C@@H](CC(C)C)C(N)=O)C(C)C)C4=O)[C@@H](NC(=O)c4ccccc4)c4ccccc4)C(C)=C1C3(C)C)[C@]1(OC(C)=O)CO[C@@H]1C[C@@H]2O` (stereo partly drawn) ({Pteroyl-γGlu}-LVRRFRRFFRRLRRC(X1)VLL-NH2) as the compound, how does the Activity (MCF7/PTX [1]) read?
**A.** Dose-dependent effect

**Q.** And the Activity (MCF7/PTX [2])?
**A.** 1.4%

**Q.** What about the Activity (MCF7/PTX [3]) of the same compound?
**A.** 28.8%

**Q.** What about the Activity (MCF7/PTX [4]) of the same compound?
**A.** 3.9%

**Q.** What about the Activity (MCF7/PTX [5]) of the same compound?
**A.** 28.8%

**Q.** What about the Activity (MCF7/PTX [6]) of the same compound?
**A.** 1.5%

**Q.** What about the Activity (MCF7/PTX [7]) of the same compound?
**A.** 65.8%

**Q.** And the Activity (MCF7/PTX [8])?
**A.** 5.6%

**Q.** What about the Activity (MCF7/PTX [9]) of the same compound?
**A.** 11.4%

**Q.** What about the Activity (MCF7/PTX [10]) of the same compound?
**A.** 1.6%

**Q.** And the Activity (MCF7/PTX [11])?
**A.** 81.4%

**Q.** What about the Activity (MCF7/PTX [12]) of the same compound?
**A.** 41.6%

**Q.** What about the IC50 (MCF7) of the same compound?
**A.** 1.39 µM

**Q.** And the IC50 (MCF7/PTX [13])?
**A.** 2.92 µM

**Q.** What about the IC50 (K562) of the same compound?
**A.** 3.85 µM

**Q.** And the IC50 (A2780)?
**A.** 1.42 µM

**Q.** And the IC50 (SK-OV-3)?
**A.** 5.49 µM

**Q.** And the Activity (MCF7/PTX [14])?
**A.** 7.1%

**Q.** What about the IC50 (HUVEC) of the same compound?
**A.** 45.2 µM

**Q.** What about the Activity (MCF7/PTX [15]) of the same compound?
**A.** 7.4%

**Q.** What about the Activity (MCF7/PTX [16]) of the same compound?
**A.** 2.4%

**Q.** And the Activity (MCF7/PTX [17])?
**A.** 83.1%

**Q.** And the Activity (MCF7/PTX [18])?
**A.** 5.6%

**Q.** What about the Activity (MCF7/PTX [19]) of the same compound?
**A.** 51.6%

**Q.** What about the Activity (MCF7/PTX [20]) of the same compound?
**A.** 1.2%

**Q.** And the Activity (Erythrocyte)?
**A.** Toxic

**Q.** What about the Activity (MCF7/PTX [21]) of the same compound?
**A.** Active

**Q.** And the Activity (MCF7/PTX [22])?
**A.** 54.6%

**Q.** And the Activity (MCF7/PTX [23])?
**A.** 15.1%

**Q.** What about the Activity (MCF7/PTX [24]) of the same compound?
**A.** 29.2%

**Q.** What about the Activity (MCF7/PTX [25]) of the same compound?
**A.** 1.3%

**Q.** What about the Activity (MCF7/PTX [26]) of the same compound?
**A.** 62%

**Q.** And the Activity (MCF7/PTX [27])?
**A.** 7.5%

**Q.** What about the Activity (MCF7/PTX [28]) of the same compound?
**A.** Active

**Q.** And the Activity (MCF7/PTX [29])?
**A.** Active

**Q.** What about the Activity (MCF7/PTX [30]) of the same compound?
**A.** Active

**Q.** What about the Activity (Tubulin (Sus scrofa)) of the same compound?
**A.** Active

**Q.** What about the half-life at 500 ug/ml [31] of the same compound?
**A.** 5.9 h

**Q.** What about the inhibition in vivo at 12 µmol/kg [32] of the same compound?
**A.** 69%

**Q.** What about the Activity [33] of the same compound?
**A.** Non-Toxic

**Q.** And the Activity (MCF7/PTX [34])?
**A.** Dose-dependent effect

**Q.** What about the Activity (MCF7/PTX [35]) of the same compound?
**A.** Dose-dependent effect

**Q.** And the solubility [36]?
**A.** > 20 mg/mL
